Experiments:
[1] = test system: A549-ACE2 infected with SARS-CoV-2; experiment: cell count relative to DMSO; higher = less toxic; conditions: 24 h
Vero E6 [2] = experiment: relative viability EC50 (midpoint between 100% and the lowest measured viability); higher = less toxic; conditions: 72 h
HepG2 [3] = experiment: as above; conditions: 72 h
A549-ACE2 [4] = experiment: drug-induced phospholipidosis relative to tamoxifen; higher = more phospholipidosis
Caco-2 [5] = experiment: drug sensitivity score (DSS) for viability; higher = more toxic; extreme values may be limits of the assay; conditions: 72 h
Vero E6 [6] = experiment: as above; conditions: 72 h
U2OS [7] = experiment: as above; conditions: 72 h
HepG2 [8] = experiment: as above; conditions: 72 h
Calu-3 [9] = experiment: as above; conditions: 72 h
[10] = test system: A549-ACE2 infected with SARS-CoV-2; experiment: morphology score (similarity to uninfected cells); higher = more like uninfected cells; conditions: 24 h
[11] = test system: A549-ACE2 infected with SARS-CoV-2; experiment: SARS-CoV-2 infection rate relative to DMSO; higher = more infection; conditions: 24 h
A549-ACE2 [12] = experiment: phospholipidosis EC50; higher = less potent phospholipidosis inducer
Caco-2 [13] = experiment: cell viability relative to DMSO; higher = less toxic; conditions: 72 h
Vero E6 [14] = experiment: as above; conditions: 72 h
U2OS [15] = experiment: as above; conditions: 72 h
HepG2 [16] = experiment: as above; conditions: 72 h
Calu-3 [17] = experiment: as above; conditions: 72 h
Caco-2 [18] = experiment: relative viability EC50 (midpoint between 100% and the lowest measured viability); higher = less toxic; conditions: 72 h
U2OS [19] = experiment: as above; conditions: 72 h
Calu-3 [20] = experiment: as above; conditions: 72 h

CCOC(=O)c1c(C)[nH]c2ccc3c(c12)CN1CCc2cc(OC)ccc2C1O3 (stereo not drawn)
Conditions | SARS-CoV-2 infection rate [%] | cell count [%] | cell viability [%] | morphology score | phospholipidosis EC50 [µM]
A549-ACE2 [12], 24 h | – | – | – | – | 9.3
Caco-2 [13], 1 nM | – | – | 103 | – | –
Caco-2 [13], 10 nM | – | – | 98.8 | – | –
Caco-2 [13], 100 nM | – | – | 95.8 | – | –
Caco-2 [13], 1000 nM | – | – | 93.1 | – | –
Caco-2 [13], 10000 nM | – | – | 53.6 | – | –
Calu-3 [17], 1 nM | – | – | 102 | – | –
Calu-3 [17], 10 nM | – | – | 101 | – | –
Calu-3 [17], 100 nM | – | – | 109 | – | –
Calu-3 [17], 1000 nM | – | – | 98.4 | – | –
Calu-3 [17], 10000 nM | – | – | 53.6 | – | –
HepG2 [16], 1 nM | – | – | 93.2 | – | –
HepG2 [16], 10 nM | – | – | 92.8 | – | –
HepG2 [16], 100 nM | – | – | 97.2 | – | –
HepG2 [16], 1000 nM | – | – | 78.4 | – | –
HepG2 [16], 10000 nM | – | – | 29 | – | –
U2OS [15], 1 nM | – | – | 97.3 | – | –
U2OS [15], 10 nM | – | – | 100 | – | –
U2OS [15], 100 nM | – | – | 99.8 | – | –
U2OS [15], 1000 nM | – | – | 98.3 | – | –
U2OS [15], 10000 nM | – | – | 61 | – | –
Vero E6 [14], 1 nM | – | – | 102 | – | –
Vero E6 [14], 10 nM | – | – | 104 | – | –
Vero E6 [14], 100 nM | – | – | 92 | – | –
Vero E6 [14], 1000 nM | – | – | 91.5 | – | –
Vero E6 [14], 10000 nM | – | – | 80.1 | – | –
[1], 0.3 µM | – | 98 | – | – | –
[1], 3 µM | – | 112 | – | – | –
[1], 10 µM | – | 114 | – | – | –
[1], 30 µM | – | 92 | – | – | –
[10], 0.3 µM | – | – | – | -0.2 | –
[10], 3 µM | – | – | – | 0.69 | –
[10], 10 µM | – | – | – | 0.83 | –
[10], 30 µM | – | – | – | 0.42 | –
[11], 0.3 µM | 105 | – | – | – | –
[11], 3 µM | 59 | – | – | – | –
[11], 10 µM | 25 | – | – | – | –
[11], 30 µM | 26 | – | – | – | –

Conditions | drug sensitivity score | relative viability EC50 [µM]
Caco-2 [5] | 3.6 | –
Calu-3 [9] | 2.6 | –
HepG2 [3] | – | 1.4
HepG2 [8] | 7.1 | –
U2OS [7] | 2.2 | –
Vero E6 [2] | – | > 10
Vero E6 [6] | 1.1 | –

drug-induced phospholipidosis [%], A549-ACE2 [4]
Conditions | 0.3 µM | 0.833333 µM | 3.33333 µM | 6.66667 µM | 10 µM | 30 µM
24 h | 2.45 | 1.52 | 13.8 | 23.7 | 49.6 | 77.6
48 h | 1.49 | 1.91 | 7.41 | 9.35 | 10.9 | 99.9
72 h | 3.49 | 0.0297 | 4.37 | 8.63 | 10.6 | 83.4

FC(F)(F)c1cc(CO[C@H]2CCCN[C@H]2c2ccccc2)cc(C(F)(F)F)c1
Conditions | SARS-CoV-2 infection rate [%] | cell count [%] | cell viability [%] | morphology score | phospholipidosis EC50 [µM]
A549-ACE2 [12], 24 h | – | – | – | – | 2.17
A549-ACE2 [12], 48 h | – | – | – | – | 2.92
A549-ACE2 [12], 72 h | – | – | – | – | 3.8
Caco-2 [13], 1 nM | – | – | 108 | – | –
Caco-2 [13], 10 nM | – | – | 106 | – | –
Caco-2 [13], 100 nM | – | – | 91.1 | – | –
Caco-2 [13], 1000 nM | – | – | 87.2 | – | –
Caco-2 [13], 10000 nM | – | – | 83.6 | – | –
Calu-3 [17], 1 nM | – | – | 97.4 | – | –
Calu-3 [17], 10 nM | – | – | 97.6 | – | –
Calu-3 [17], 100 nM | – | – | 102 | – | –
Calu-3 [17], 1000 nM | – | – | 101 | – | –
Calu-3 [17], 10000 nM | – | – | 18.1 | – | –
HepG2 [16], 1 nM | – | – | 104 | – | –
HepG2 [16], 10 nM | – | – | 97.9 | – | –
HepG2 [16], 100 nM | – | – | 97.8 | – | –
HepG2 [16], 1000 nM | – | – | 107 | – | –
HepG2 [16], 10000 nM | – | – | 88.4 | – | –
U2OS [15], 1 nM | – | – | 104 | – | –
U2OS [15], 10 nM | – | – | 101 | – | –
U2OS [15], 100 nM | – | – | 105 | – | –
U2OS [15], 1000 nM | – | – | 96.2 | – | –
U2OS [15], 10000 nM | – | – | 92.1 | – | –
Vero E6 [14], 1 nM | – | – | 96.7 | – | –
Vero E6 [14], 10 nM | – | – | 102 | – | –
Vero E6 [14], 100 nM | – | – | 102 | – | –
Vero E6 [14], 1000 nM | – | – | 99.1 | – | –
Vero E6 [14], 10000 nM | – | – | 89.4 | – | –
[1], 0.3 µM | – | 100 | – | – | –
[1], 3 µM | – | 113 | – | – | –
[1], 10 µM | – | 121 | – | – | –
[1], 30 µM | – | 69 | – | – | –
[10], 0.3 µM | – | – | – | 0.12 | –
[10], 3 µM | – | – | – | 0.72 | –
[10], 10 µM | – | – | – | 0.92 | –
[10], 30 µM | – | – | – | 0.01 | –
[11], 0.3 µM | 95 | – | – | – | –
[11], 3 µM | 57 | – | – | – | –
[11], 10 µM | 16 | – | – | – | –
[11], 30 µM | 42 | – | – | – | –

Conditions | drug sensitivity score | relative viability EC50 [µM]
Caco-2 [5] | 2.5 | –
Caco-2 [18] | – | > 10
Calu-3 [9] | 4.4 | –
Calu-3 [20] | – | 3.27
HepG2 [3] | – | > 10
HepG2 [8] | 0 | –
U2OS [7] | 0 | –
U2OS [19] | – | > 10
Vero E6 [2] | – | > 10
Vero E6 [6] | 0 | –

drug-induced phospholipidosis [%], A549-ACE2 [4]
Conditions | 0.3 µM | 0.833333 µM | 3.33333 µM | 6.66667 µM | 10 µM
24 h | 3.76 | 11.4 | 79.2 | 99.1 | 104
48 h | 4.92 | 7.68 | 61.5 | 89.2 | 97.2
72 h | 5.63 | 5.43 | 40.2 | 85 | 93
